ChEMBL document CHEMBL1144858, “3D-QSAR CoMFA studies on bis-coumarine analogues as urease inhibitors: a strategic design in anti-urease agents” (Bioorg Med Chem, 2008)

Molecular target: Urease (Canavalia ensiformis, UniProt P07374)
Experiment: Inhibition of jack bean urease

Sequence of Urease (P07374 whole entry): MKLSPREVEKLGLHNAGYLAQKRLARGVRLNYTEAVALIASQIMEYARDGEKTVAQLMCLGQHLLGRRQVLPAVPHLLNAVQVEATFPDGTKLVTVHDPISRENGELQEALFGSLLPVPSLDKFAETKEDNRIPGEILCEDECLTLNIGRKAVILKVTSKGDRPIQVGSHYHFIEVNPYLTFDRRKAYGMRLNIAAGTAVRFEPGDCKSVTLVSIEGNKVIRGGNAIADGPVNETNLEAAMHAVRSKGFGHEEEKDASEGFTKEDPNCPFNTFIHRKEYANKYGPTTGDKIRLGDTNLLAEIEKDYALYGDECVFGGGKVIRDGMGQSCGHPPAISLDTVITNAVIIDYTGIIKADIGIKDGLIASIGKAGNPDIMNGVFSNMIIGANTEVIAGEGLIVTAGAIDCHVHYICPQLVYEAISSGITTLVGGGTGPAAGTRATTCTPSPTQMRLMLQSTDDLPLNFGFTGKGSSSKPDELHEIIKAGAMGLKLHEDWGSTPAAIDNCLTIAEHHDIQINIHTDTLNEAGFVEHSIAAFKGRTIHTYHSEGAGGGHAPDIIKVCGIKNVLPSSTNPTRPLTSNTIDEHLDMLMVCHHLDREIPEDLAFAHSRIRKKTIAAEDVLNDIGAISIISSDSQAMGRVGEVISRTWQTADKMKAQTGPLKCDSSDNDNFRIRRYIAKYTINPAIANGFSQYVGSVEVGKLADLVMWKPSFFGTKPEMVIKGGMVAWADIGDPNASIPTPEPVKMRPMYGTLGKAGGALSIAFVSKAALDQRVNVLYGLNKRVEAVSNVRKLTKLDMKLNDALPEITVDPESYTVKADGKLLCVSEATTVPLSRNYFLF

COc1cc(C(c2c(O)oc3ccccc3c2=O)c2c(O)oc3ccccc3c2=O)cc(OC)c1OC
IC50: 83.2 µM

CC(C)c1ccc(C(c2c(O)oc3ccccc3c2=O)c2c(O)oc3ccccc3c2=O)cc1
IC50: 83.2 µM

COc1ccc(C(c2c(O)c3ccccc3oc2=O)c2c(O)c3ccccc3oc2=O)cc1
IC50: 60.3 µM

O=c1oc2ccccc2c(O)c1C(c1c(O)c2ccccc2oc1=O)c1c[nH]c2ccccc12
IC50: 61.7 µM

CCCCCC(c1c(O)c2ccccc2oc1=O)c1c(O)c2ccccc2oc1=O
IC50: 87.1 µM

O=c1oc2ccccc2c(O)c1C(c1ccncc1)c1c(O)c2ccccc2oc1=O
IC50: 58.9 µM

O=c1oc2ccccc2c(O)c1C(/C=C/c1ccccc1)c1c(O)c2ccccc2oc1=O
IC50: 60.3 µM

O=c1oc2ccccc2c(O)c1C(c1cccnc1)c1c(O)c2ccccc2oc1=O
IC50: 35.5 µM

O=c1oc2ccccc2c(O)c1C(c1ccccc1Cl)c1c(O)c2ccccc2oc1=O
IC50: 85.1 µM

CC(c1ccccc1)C(c1c(O)c2ccccc2oc1=O)c1c(O)c2ccccc2oc1=O (stereo not drawn)
IC50: 52.5 µM

CCOc1cc(C(c2c(O)c3ccccc3oc2=O)c2c(O)c3ccccc3oc2=O)ccc1O
IC50: 91.2 µM

O=c1oc2ccccc2c(O)c1C(c1ccc[nH]1)c1c(O)c2ccccc2oc1=O
IC50: 46.8 µM

CCCCC(c1c(O)c2ccccc2oc1=O)c1c(O)c2ccccc2oc1=O
IC50: 64.6 µM

O=c1oc2ccccc2c(O)c1C(CCc1ccccc1)c1c(O)c2ccccc2oc1=O
IC50: 67.6 µM

O=c1c(C(c2ccc(O)cc2)c2c(O)oc3ccccc3c2=O)c(O)oc2ccccc12
IC50: 74.1 µM

COc1cccc(C(c2c(O)c3ccccc3oc2=O)c2c(O)c3ccccc3oc2=O)c1
IC50: 56.2 µM

COc1ccccc1C(c1c(O)c2ccccc2oc1=O)c1c(O)c2ccccc2oc1=O
IC50: 83.2 µM

CC(c1c(O)c2ccccc2oc1=O)c1c(O)c2ccccc2oc1=O
IC50: 63.1 µM

CCCC(c1c(O)c2ccccc2oc1=O)c1c(O)c2ccccc2oc1=O
IC50: 67.6 µM

O=c1oc2ccccc2c(O)c1C(c1cccc(O)c1)c1c(O)c2ccccc2oc1=O
IC50: 72.4 µM

O=c1oc2ccccc2c(O)c1C(c1cccc([N+](=O)[O-])c1)c1c(O)c2ccccc2oc1=O
IC50: 81.3 µM

C/C=C/C(c1c(O)c2ccccc2oc1=O)c1c(O)c2ccccc2oc1=O
IC50: 43.7 µM

O=c1oc2ccccc2c(O)c1C(c1ccccc1Br)c1c(O)c2ccccc2oc1=O
IC50: 74.1 µM

COc1ccc(C(c2c(O)c3ccccc3oc2=O)c2c(O)c3ccccc3oc2=O)cc1OC
IC50: 79.4 µM

O=c1oc2ccccc2c(O)c1C(c1cccc(Cl)c1)c1c(O)c2ccccc2oc1=O
IC50: 74.1 µM

Nc1cccc(C(c2c(O)c3ccccc3oc2=O)c2c(O)c3ccccc3oc2=O)c1
IC50: 75.9 µM

O=c1c(C(c2ccc([N+](=O)[O-])cc2)c2c(O)oc3ccccc3c2=O)c(O)oc2ccccc12
IC50: 70.8 µM

O=c1oc2ccccc2c(O)c1Cc1c(O)c2ccccc2oc1=O [DICUMAROL]
IC50: 15.1 µM
